Tests used:
[1] = system: cultured human fibrosarcoma HT-1080 cells; experiment: MTT assay, cell growth inhibitory activity on cancer cells; format: cell-based; details: for higher growth inhibitory activity on cancer cells than on normal cells: HT-1080 cancer cells versus WI-38 normal cells, from IC50 values; for IC50: Homo sapiens, MTT assay, 72 hours incubation at 37° C., HT-1080 cells, value ± standard deviation
Method: (§1) MTT assay was performed to examine two test compounds, i.e., 7-(2-thienyl)-3-(2-deoxy-1-β-D-ribofuranosyl)-3H-imidazo[4,5-b]pyridine (herein referred to as Compound IA) and 5-amino-7-(2-thienyl)-3-(2-deoxy-1-β-D-ribofuranosyl)-3H-imidazo[4,5-b]pyridine (herein referred to as Compound IB) for their cell growth inhibitory effect on cultured human fibrosarcoma HT-1080 cells and human fetal lung fibroblast (normal diploid fibroblast) WI-38 cells. These cells (1×10^4 cells/ml) were seeded in 96-well microplates (IWAKI) at 90 μl/well. After culturing at 37° C. for 3 to 4 hours, test compound solutions (10 μl each), which had been dissolved in PBS-5% DMSO and adjusted to various concentrations, were added and incubated at 37° C. for 72 hours. To the wells containing these solutions, a PBS solution of MTT (5 mg/ml) was added in 25 μl volumes and incubated at 37° C. for an additional 2 hours, followed by addition of a 50% DMF-20% SDS solution in 100 μl to each well. After incubation was continued at 37° C. for 16 hours, the absorbance at 570 nm was measured using a microplate reader to calculate % inhibition according to the following equation. % Inhibition=100×[1−(Abssample−Absbackground)/(Absnegative control−Absbackground)] [Expression 2]
(§2) Abssample: Absorbance in the presence of test compound
(§3) Absbackground: Absorbance in the absence of cells and test compound
Absnegative control: Absorbance in the absence of test compound
The concentration (IC50 μM) required for each test compound to cause 50% inhibition of cell growth was calculated from a concentration-inhibition curve. The IC50 values are shown in Table 1 below, along with their standard deviation.

[2] = system: human fetal lung fibroblast (normal diploid fibroblast) WI-38 cells; experiment: MTT assay, cell growth inhibitory activity on normal cells; format: cell-based; details: 72 hours incubation at 37° C., WI-38 normal cells, value ± standard deviation
Method: as §1, with “To the wells containing these solutions, a PBS solution of MTT (5 mg/ml) was added in 25 μl volumes and incubated at 37° C. for an additional 2 hours, followed by addition of a 50% DMF-20% SDS solution in 100 μl to each well.” left out, “[Expression 2]” left out
as §2, §3
Absnegative control: Absorbance in the absence of test compound […]

IC50 [1] [µM]	SMILES	higher growth inhibitory activity on cancer cells than on normal cells [1]	IC50 [2] [µM]
62	OC[C@H]1O[C@@H](n2cnc3c(-c4cccs4)ccnc32)C[C@H]1O [Compound IA, 7-(2-thienyl)-3-(2-deoxy-1-β-D-ribofuranosyl)-3H-imidazo[4,5-b]pyridine]	about 5 fold	290 ± 130
34	Nc1cc(-c2cccs2)c2ncn([C@H]3C[C@@H](O)[C@@H](CO)O3)c2n1 [Compound IB, 5-amino-7-(2-thienyl)-3-(2-deoxy-1-β-D-ribofuranosyl)-3H-imidazo[4,5-b]pyridine]	about 10 fold	330 ± 40

Reference: patent US7615628B2, “Imidazopyridine derivatives” (Riken, priority 2005, dated 2009)
